Values after ≈ are worked out from the molar mass of the structure shown.
Key:
[1] = Inhibition of Escherichia coli ATCC 25922 ATP synthase activity preincubated for 30 mins followed by NADH/ADP addition and measured after 60 mins by luciferin/luciferase luminescence assay
[2] = Inhibition of Staphylococcus aureus ATCC 29213 ATP synthase activity preincubated for 30 mins followed by NADH/ADP addition and measured after 60 mins by luciferin/luciferase luminescence assay
Escherichia coli [3] = assay: Antibacterial activity against Escherichia coli ATCC 25922 assessed as reduction in microbial growth incubated for 20 hrs under aerobic condition by CLSI based broth microdilution method; type: functional
Staphylococcus aureus [4] = assay: Antibacterial activity against Staphylococcus aureus ATCC 29213 assessed as reduction in microbial growth incubated for 20 hrs under aerobic condition by CLSI based broth microdilution method; type: functional
Staphylococcus aureus [5] = assay: Antibacterial activity against Staphylococcus aureus ATCC 29213 hemB SCV assessed as reduction in microbial growth incubated for 20 hrs under aerobic condition by CLSI based broth microdilution method; type: functional
Escherichia coli [6] = assay: Antibacterial activity against Escherichia coli MC4100 assessed as reduction in bacterial growth by CLSI based broth microdilution method; type: functional
Escherichia coli [7] = assay: Antibacterial activity against Escherichia coli MC4100 harbouring acrAB mutant assessed as reduction in bacterial growth by CLSI based broth microdilution method; type: functional
Escherichia coli [8] = assay: Antibacterial activity against Escherichia coli MC4100 harbouring lptD mutant assessed as reduction in bacterial growth by CLSI based broth microdilution method; type: functional
Escherichia coli [9] = assay: Antibacterial activity against Escherichia coli ATCC 25922 assessed as fold decrease in MIC for 20 hrs under aerobic condition by CLSI based broth microdilution method; type: functional
Escherichia coli [10] = assay: Antibacterial activity against antibiotic susceptible Escherichia coli ATCC 25922 assessed as reduction in microbial growth incubated for 20 hrs under aerobic condition by CLSI based broth microdilution method; type: functional
Escherichia coli [11] = assay: Antibacterial activity against NDM1-producing carbapenem/antibiotic resistant Escherichia coli ATCC BAA-2471 assessed as reduction in microbial growth incubated for 20 hrs under aerobic condition by CLSI based broth microdilution method; type: functional
Escherichia coli [12] = assay: Antibacterial activity against antibiotic resistant Escherichia coli producing extended spectrum beta-lactamase CTX-M-15 assessed as reduction in microbial growth incubated for 20 hrs under aerobic condition by CLSI based broth microdilution method; type: functional
Escherichia coli [13] = assay: Antibacterial activity against antibiotic susceptible Escherichia coli producing extended spectrum beta-lactamase CTX-M-15 assessed as reduction in microbial growth incubated for 20 hrs under aerobic condition by CLSI based broth microdilution method; type: functional
Escherichia coli [14] = assay: Antibacterial activity against antibiotic susceptible /colistin resistant Escherichia coli harboring mcr-1 gene assessed as reduction in microbial growth incubated for 20 hrs under aerobic condition by CLSI based broth microdilution method; type: functional
Escherichia coli [15] = assay: microbe, parasite or virus in culture; details: 20 h
Description: Antibacterial activity against antibiotic resistant Escherichia coli producing extended spectrum beta-lactamase KPC assessed as reduction in microbial growth incubated for 20 hrs under aerobic condition by CLSI based broth microdilution method

Staphylococcus aureus [16] = assay: Antibacterial activity against antibiotic susceptible Staphylococcus aureus ATCC 29213 assessed as reduction in microbial growth incubated for 20 hrs under aerobic condition by CLSI based broth microdilution method; type: functional
Staphylococcus aureus [17] = assay: Antibacterial activity against antibiotic susceptible Staphylococcus aureus ATCC 29213 hemB SCV assessed as reduction in microbial growth incubated for 20 hrs under aerobic condition by CLSI based broth microdilution method; type: functional
Staphylococcus aureus [18] = assay: Antibacterial activity against antibiotic resistant methicillin resistant Staphylococcus aureus ATCC BAA-41/USA-100 assessed as reduction in microbial growth incubated for 20 hrs under aerobic condition by CLSI based broth microdilution method; type: functional
Staphylococcus aureus [19] = assay: Antibacterial activity against antibiotic resitant/methicillin resistant Staphylococcus aureus ATCC 700699/Mu50 assessed as reduction in microbial growth incubated for 20 hrs under aerobic condition by CLSI based broth microdilution method; type: functional
Staphylococcus aureus [20] = assay: Antibacterial activity against antibiotic resistant Staphylococcus aureus ATCC 29213 hemB SCV assessed as reduction in microbial growth incubated for 20 hrs under aerobic condition by CLSI based broth microdilution method; type: functional
Escherichia coli [21] = assay: Antibacterial activity against antibiotic susceptible Escherichia coli producing extended spectrum beta-lactamase KPC assessed as reduction in microbial growth incubated for 20 hrs under aerobic condition by CLSI based broth microdilution method; type: functional
Escherichia coli [22] = assay: Antibacterial activity against antibiotic/colistin resistant Escherichia coli harboring mcr-1 gene assessed as reduction in microbial growth incubated for 20 hrs under aerobic condition by CLSI based broth microdilution method; type: functional
Escherichia coli [23] = assay: Antibacterial activity against NDM1-producing carbapenem resistant/antibiotic susceptible Escherichia coli ATCC BAA-2471 assessed as reduction in microbial growth incubated for 20 hrs under aerobic condition by CLSI based broth microdilution method; type: functional, organism-based

| Molecule | IC50 [1] | MIC (Escherichia coli [3]) | MIC (Staphylococcus aureus [4]) | MIC (Escherichia coli [6]) | MIC (Escherichia coli [7]) | MIC (Escherichia coli [8]) | also measured |
| --- | --- | --- | --- | --- | --- | --- | --- |
| O=[N+]([O-])c1ccc(Cl)c2nonc12 | 3940 nM | – | – | – | – | – | IC50 [2]: 1700 nM |
| C[C@H]1CC[C@]2(NC1)O[C@H]1C[C@H]3[C@@H]4CC[C@H]5CC(NCCN)CC[C@]5(C)[C@H]4CC[C@]3(C)[C@H]1[C@@H]2C (some centres undefined) | 1300 nM | 32 µg/mL | 8 µg/mL | 16 µg/mL (≈ 35 µM) | 8 µg/mL (≈ 17.5 µM) | 0.5 µg/mL (≈ 1.09 µM) | MIC (Staphylococcus aureus [5]): 0.006 µg/mL |
| C[C@H]1CC[C@]2(NC1)O[C@H]1C[C@H]3[C@@H]4CC[C@H]5CC(NC[C@@H](N)Cc6ccc(Br)cc6)CC[C@]5(C)[C@H]4CC[C@]3(C)[C@H]1[C@@H]2C (some centres undefined) | – | 8 µg/mL | 2 µg/mL | – | – | – | MIC (Staphylococcus aureus [5]): ≤ 0.25 µg/mL; fold change (FC) (Escherichia coli [9]): 2 |
| C[C@H]1CC[C@]2(NC1)O[C@H]1C[C@H]3[C@@H]4CC[C@H]5CC(NC[C@@H](N)Cc6c[nH]c7ccccc67)CC[C@]5(C)[C@H]4CC[C@]3(C)[C@H]1[C@@H]2C (mixture of isomers) | 1900 nM | 8 µg/mL | 2 µg/mL | 16 µg/mL | 4 µg/mL | 2 µg/mL | – |
| C[C@H]1CC[C@]2(NC1)O[C@H]1C[C@H]3[C@@H]4CC[C@H]5CC(NC[C@@H](N)Cc6ccc(-c7ccccc7)cc6)CC[C@]5(C)[C@H]4CC[C@]3(C)[C@H]1[C@@H]2C (mixture of isomers) | 3400 nM | 8 µg/mL | 2 µg/mL | 8 µg/mL | 8 µg/mL | 2 µg/mL | – |
| C[C@H]1CC[C@]2(NC1)O[C@H]1C[C@H]3[C@@H]4CC[C@H]5CC(NC[C@@H](N)Cc6ccccc6)CC[C@]5(C)[C@H]4CC[C@]3(C)[C@H]1[C@@H]2C (mixture of isomers) | 1300 nM | 32 µg/mL | 4 µg/mL | 32 µg/mL | 8 µg/mL | 4 µg/mL | – |
| C[C@H]1CC[C@]2(NC1)O[C@H]1C[C@H]3[C@@H]4CC[C@H]5CC(NC[C@@H](N)Cc6ccc(Cl)cc6)CC[C@]5(C)[C@H]4CC[C@]3(C)[C@H]1[C@@H]2C (mixture of isomers) | – | 8 µg/mL | 2 µg/mL | – | – | – | MIC (Staphylococcus aureus [5]): ≤ 0.25 µg/mL; fold change (FC) (Escherichia coli [9]): 2 |
| C[C@H]1CC[C@]2(NC1)O[C@H]1C[C@H]3[C@@H]4CC[C@H]5CC(NC[C@@H](N)Cc6ccc(I)cc6)CC[C@]5(C)[C@H]4CC[C@]3(C)[C@H]1[C@@H]2C (mixture of isomers) | 1500 nM | 4 µg/mL | 2 µg/mL | 8 µg/mL | 4 µg/mL | 2 µg/mL | MIC (Staphylococcus aureus [5]): ≤ 0.25 µg/mL; fold change (FC) (Escherichia coli [9]): 2 |
| C[C@H]1CC[C@]2(NC1)O[C@H]1C[C@H]3[C@@H]4CC[C@H]5CC(NCCN6CCOCC6)CC[C@]5(C)[C@H]4CC[C@]3(C)[C@H]1[C@@H]2C (mixture of isomers) | 6500 nM | > 128 µg/mL | 64 µg/mL | > 128 µg/mL | 128 µg/mL | 64 µg/mL | – |
| C[C@H]1CC[C@]2(NC1)O[C@H]1C[C@H]3[C@@H]4CC[C@H]5CC(NC[C@@H](N)Cc6ccncc6)CC[C@]5(C)[C@H]4CC[C@]3(C)[C@H]1[C@@H]2C (mixture of isomers) | 1500 nM | > 128 µg/mL | 16 µg/mL | > 128 µg/mL | 32 µg/mL | 16 µg/mL | – |
| C[C@H]1CC[C@]2(NC1)O[C@H]1C[C@H]3[C@@H]4CC[C@H]5CC(N[C@@H]6CCNC6)CC[C@]5(C)[C@H]4CC[C@]3(C)[C@H]1[C@@H]2C (mixture of isomers) | 4700 nM | 64 µg/mL | 32 µg/mL | 64 µg/mL | 32 µg/mL | 32 µg/mL | – |
| C[C@H]1CC[C@]2(NC1)O[C@H]1C[C@H]3[C@@H]4CC[C@H]5CC(NCCN6CCCC6)CC[C@]5(C)[C@H]4CC[C@]3(C)[C@H]1[C@@H]2C (mixture of isomers) | 900 nM | 64 µg/mL | – | 64 µg/mL | 8 µg/mL | 0.5 µg/mL | – |
| C[C@H]1CC[C@]2(NC1)O[C@H]1C[C@H]3[C@@H]4CC[C@H]5CC(NC[C@@H](N)Cc6ccc7ccccc7c6)CC[C@]5(C)[C@H]4CC[C@]3(C)[C@H]1[C@@H]2C (mixture of isomers) | 2000 nM | 8 µg/mL | 1 µg/mL | 16 µg/mL | 4 µg/mL | 8 µg/mL | – |
| CC(C)(O/N=C(\C(=O)N[C@@H]1C(=O)N2C(C(=O)[O-])=C(C[n+]3ccccc3)CS[C@H]12)c1csc(N)n1)C(=O)O [CEFTAZIDIME] | – | – | – | – | – | – | MIC (Escherichia coli [10]): 0.25 µg/mL; MIC (Escherichia coli [11]): > 32 µg/mL; MIC (Escherichia coli [12]): > 32 µg/mL; MIC (Escherichia coli [13]): 1 µg/mL; MIC (Escherichia coli [14]): 0.25 µg/mL; MIC (Escherichia coli [15]): > 32 µg/mL |
| C[C@@H](O)[C@H]1C(=O)N2C(C(=O)O)=C(S[C@@H]3CN[C@H](C(=O)N(C)C)C3)[C@H](C)[C@H]12 [MEROPENEM] | – | – | – | – | – | – | MIC (Staphylococcus aureus [16]): 0.12 µg/mL; MIC (Staphylococcus aureus [17]): 0.06 µg/mL; MIC (Staphylococcus aureus [18]): > 16 µg/mL; MIC (Staphylococcus aureus [19]): > 16 µg/mL; MIC (Escherichia coli [10]): ≤ 0.03 µg/mL; MIC (Escherichia coli [11]): > 16 µg/mL; MIC (Escherichia coli [14]): ≤ 0.03 µg/mL; MIC (Escherichia coli [15]): 8 µg/mL (≈ 20.9 µM) |
| Cc1onc(-c2ccccc2)c1C(=O)N[C@@H]1C(=O)N2[C@@H]1SC(C)(C)[C@@H]2C(=O)O [OXACILLIN] | – | – | – | – | – | – | MIC (Staphylococcus aureus [16]): 0.24 µg/mL; MIC (Staphylococcus aureus [17]): 0.12 µg/mL; MIC (Staphylococcus aureus [18]): > 128 µg/mL; MIC (Staphylococcus aureus [19]): > 128 µg/mL |
| NC[C@H]1O[C@H](O[C@H]2[C@H](O)[C@@H](O[C@H]3O[C@H](CO)[C@@H](O)[C@H](N)[C@H]3O)[C@H](N)C[C@@H]2N)[C@H](N)C[C@@H]1O [TOBRAMYCIN] | – | – | – | – | – | – | MIC (Staphylococcus aureus [16]): 0.5 µg/mL; MIC (Staphylococcus aureus [20]): 16 µg/mL; MIC (Staphylococcus aureus [18]): > 64 µg/mL; MIC (Staphylococcus aureus [19]): > 64 µg/mL; MIC (Escherichia coli [10]): 0.24 µg/mL; MIC (Escherichia coli [11]): 64 µg/mL; MIC (Escherichia coli [12]): 64 µg/mL; MIC (Escherichia coli [13]): ≤ 0.03 µg/mL; MIC (Escherichia coli [21]): 0.5 µg/mL; MIC (Escherichia coli [22]): 32 µg/mL |
| COLISTIN | – | – | – | – | – | – | MIC (Escherichia coli [10]): 1 µg/mL; MIC (Escherichia coli [23]): 1 µg/mL; MIC (Escherichia coli [21]): 0.5 µg/mL; MIC (Escherichia coli [22]): 32 µg/mL |

— ChEMBL document CHEMBL5634158, “From garden to lab: C-3 chemical modifications of tomatidine unveil broad-spectrum ATP synthase inhibitors to combat bacterial resistance” (Eur J Med Chem, 2023)
